Consider one compound from patent US20220125877A1, “METHOD FOR TREATING COLORECTAL CANCER” (SUN YAT-SEN UNIVERSITY, priority 2019, published 2022).

The test system of data set [1] is KRAS wildtype CRC cells CaCO2. As to the kind of experiment: Cell viability (CCK-8 method). The format is cell-based. The following applies: Homo sapiens, Caco-2; CCK8, FIG. 10. The procedure: (§1) The cells were inoculated on a plate according to the concentration of 5000 cells/well (48-well plate, 200 μl per well). The cells were treated with different ways according to the experimental requirements, and 10 μl CCK8 solution was added after a period of time. The cells were incubated for 1 h in an incubator; 200 μl supernatant were absorbed into a 96-well ELISA plate to determine OD450 with a microplate reader.
(§2) (2) Metformin with a gradient concentration was used in vitro to treat KRAS wildtype colorectal cancer cell lines SW48 and CaCO2, KRAS G13D-mutation colorectal cancer cell lines HCT-116 and LoVo, as well as KRAS G12V-mutation colorectal cancer cell lines SW480 and SW620. In addition, the metformin with a gradient concentration was used to treat the KRAS wildtype colorectal cancer cell line SW48 transfected with KRAS G12V, KRAS G13D and KRAS G12D plasmids.
(§3) 5 μM and 10 μM lansoprazole were used to treat HCT-116 and LoVo simultaneously; metformin was used to treat the cells at the same time for 48 h; the cell viability was detected by CCK8.
(Tetrazolium dyes change colour on reduction, which living cells bring about.)

The subject of data set [2] is KRAS wildtype CRC cells SW48. Put plainly: Cell viability (CCK-8 method). The format is cell-based. Particulars: Homo sapiens, CCK8, FIG. 10. The procedure:
as §1, §2, §3

In a further data set the test system is KRAS mutation PDX tumor. Put plainly: PDX model, tumor size and weight. The format is in vivo, BALB/c nude mice. Particulars: compared with KRAS wildtype tumor model; 200 mg/kg in water, 30 d, FIG. 7. As for the experimental part: Use of the PDX model: tumor tissues from the clinical KRAS wildtype and mutation CRC patients were taken, the tumor cells were cultured with a digestion process; after identifying the KRAS mutation, the tumor cells were planted in an axillary fossa area of nude mice.
1) Collection of patients' tumor specimens: cancer tissues with non-necrotic edges were taken from specimens obtained after excision, and soaked into a PRMI1640 culture solution containing 5% fetal calf serum, 1×penicillin and streptomycin double-antibodies, and then transported at 4° C.;
2) the tumor tissues were cut into small pieces having a size of about 2×2×2 mm on a super clean bench, and cleaned for 3 times with the above culture solution to remove extravasated blood; […]
7) when the transplanted tumor grew to 100-200 mm^3, the nude mice were administered intragastrically everyday at 9:00 a.m. for consecutive 28 d. […] The size of the transplanted tumor was measured everyday, volume (mm^3)=[length×width^2]/2;
8) the nude mice were killed 30 d layer, and tumor tissues were taken, shoot, measured, embedded and sliced.
200 mg/kg (equivalent to human 1000 mg) metformin was dissolved into water, and respectively taken by KRAS wildtype and mutation animals; then the tumor size was measured; 30 d later, the tumor tissues were killed and weighed.

For data set [3], the system named is 4E-BP1 phosphorylation in LoVo cell line with knock-down KRAS protein. Put plainly: Western blot of signaling pathways. Particulars: FIG. 9E. The format is cell-based, human. As for the experimental part: (§4) Western blot was used to detect the change of metformin on the related molecules of sroliferative signaling pathways MEK/ERK/cyclin D1/RB and PI3K/AKT/mTOR/4E-BP1, which clarifies the mechanism of metformin in inhibiting the proliferation of KRAS mutation CRC cells.
(§5) 1) Cells were inoculated on a culture dish and cultured to 60% of fusion degree, and treated with the addition of an agent for 24 h.
(§6) 2) Protein was collected, and washed with PBS for 3 times, then added with 100 μl 1 RSDS buffer solution (100 mmol/1 Tris-Cl pH6.8, 2% SDS, 10% glycerinum), and at this time, the cell lysis solution was sticky.
(§7) 3) The cell lysis solution was collected into a 0.5 ml centrifugal tube with a scraper, and cooked for 30 min at 100° C.
(§8) 4) The total protein extractive in the cells was subjected to protein quantification according to a BCA kit process (BIO-RAD company).
(§9) 5) The sample was treated according to a ratio of 9 μl denatured protein sample: 1 μl denatured buffer solution (β-mercaptoethanol (BME), 0.4% Bromphenol Blue), and boiled for 30 min at 100° C. for further use.
(§10) 6) A prepared SDS-PAGE gel (10% separation gel and 5% stacking gel) was taken; samples were added with 40 ug/well, and subjected gel electrophoresis for 30 min at 80V, and gel electrophoresis for 90 min at 120V. […]

Data set [4] has as its system cyclinD1/RB and AKT/mTOR/4E-BP1 signaling pathways in KRAS (G13D) mutation SW48 cell line. Put plainly: Western blot of signaling pathways. Format: cell-based, human. Particulars: FIG. 9D. The procedure: as §4, §5, §6, §7, §8, §9, §10
On the technique in general: In western blotting, separated proteins are transferred to a membrane and probed.

Data set [5] can be described thus: Concentration of metformin in tumor tissues by mass spectrometry. The format is in vivo. Particulars: KRAS mutation vs KRAS wildtype tumor tissues, FIG. 11F. An excerpt: The concentration of metformin in KRAS wildtype and mutation tumor tissues was detected by mass spectrometry.
The next data set concerns SW48+sh-MATE1 CDX. As to the kind of experiment: Cell-derived xenograft (CDX), tumor growth. Format: in vivo, BALB/c nude mice. The following applies: 200 mg/kg in water, 30 d, MATE1 knocked down, FIGS. 12G-L. The procedure:
In the CDX, CRISPR/Cas9 was first utilized to build a KRAS^G13DSW48 cell line; MATE1 was knocked down by shRNA lentivirus transduction in SW48 to build a sh-MATE1-SW48 cell line; lentivirus was infected in KRAS^G13DSW48 cells to over-express MATE1. 1×10^6 cells were suspended in a basement membrane matrix (100 μl basement membrane matrix and 100 μl PBS) and subcutaneously injected into BALB/c nude mice. CDX mice were randomly distributed into a metformin treatment group and a control group. 200 mg/kg (equivalent to human 1000 mg) metformin was dissolved into water, and respectively taken by the 4 groups of animals; then the tumor size was measured; 30 d later, the tumor tissues were killed and weighed.

For `CN(C)C(=N)N=C(N)N` [metformin], the IC50 (as a rule, the point on the concentration scale where inhibition reaches its midpoint) in data set [1] is 88.1 mM; in data set [2], 90.8 mM. Further, in the data set on KRAS mutation PDX tumor, the tumor size entry was “obviously inhibit”. For the same compound, the tumor weight result in the data set with KRAS mutation PDX tumor is recorded as “obviously inhibit”. In addition, the “inhibiting effect on LoVo protein and 4E-BP1 phosphorylation after interference of KRAS (G13D) expression” value in data set [3] is on record as “down-regulate the inhibiting effect”. Besides, the “change of the cyclinD1/RB and AKT/mTOR/4E-BP1 signaling pathways” value in data set [4] is “consistent with the KRAS mutation CRC cells LoVo”. Besides, the “concentration of metformin in tumor tissues” value in data set [5] was “higher than that in the KRAS wildtype tumor tissues”. Besides, the tumor growth entry in the data set on SW48+sh-MATE1 CDX is reported as “significantly inhibits the tumor growth”.
